Assay results reported in US8835428B2, “Diacylglycerol acyltransferase inhibitors” (Piramal Enterprises Limited, priority 2008, dated 2014).

Molecular target: T1, hDGAT1 (Homo sapiens, UniProt O75907)
T1 construct: host or cells: Sf9 insect cells (baculovirus); microsomal preparation
T1 sequence (O75907 1-488): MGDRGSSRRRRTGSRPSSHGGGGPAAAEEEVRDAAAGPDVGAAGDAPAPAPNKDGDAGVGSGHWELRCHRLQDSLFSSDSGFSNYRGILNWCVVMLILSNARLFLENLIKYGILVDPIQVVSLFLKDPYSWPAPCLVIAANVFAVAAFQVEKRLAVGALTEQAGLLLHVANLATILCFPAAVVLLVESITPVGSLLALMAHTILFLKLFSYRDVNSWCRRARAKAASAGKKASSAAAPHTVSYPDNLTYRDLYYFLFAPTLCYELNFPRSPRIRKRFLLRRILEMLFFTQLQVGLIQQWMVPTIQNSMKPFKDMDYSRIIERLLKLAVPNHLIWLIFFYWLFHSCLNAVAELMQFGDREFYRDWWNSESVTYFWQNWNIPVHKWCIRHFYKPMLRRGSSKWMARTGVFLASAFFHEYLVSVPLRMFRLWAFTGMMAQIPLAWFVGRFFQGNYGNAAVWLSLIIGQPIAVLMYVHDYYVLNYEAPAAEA
Experiment: In-vitro DGAT1 assay (hDGAT1 microsomes from Sf9 cells, 14C oleoyl CoA, triglyceride formation)
Assay type: biochemical
Method in brief: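 Human DGAT1 in baculovirus-infected Sf9 microsomes (2.5–10 μg), [14C]oleoyl-CoA with 409.5, 1228.5 or 1638 μM 1,2-dioleoyl-sn-glycerol, Tris-HCl pH 7.4 buffer with BSA. Compounds screened at 10, 5 and 1 μM in duplicate. Reaction 10 min at 37 °C; heptane-extracted [14C]triglyceride counted by scintillation.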

Row | inhibition at 5 µM | inhibition at 1 µM | Molecule | further results
1 | 0 to 50% |  | COC(=O)[C@@H](NC(=O)c1nc(-c2ccc(NS(=O)(=O)c3ccc(F)cc3F)cc2)no1)C(C)C [Example 350, (S)-methyl 2-(3-(4-(2,4-difluorophenylsulfonamido)phenyl)-1,2,4-oxadiazole-5-carboxamido)-3-methylbutanoate] | 
2 | 0 to 50% |  | COC(=O)[C@@H](NC(=O)c1nc(-c2ccc(NC(=O)Nc3ccccc3)cc2)no1)C(C)C [Example 351, (S)-Methyl 3-methyl-2-(3-(4-(3-phenylureido)phenyl)-1,2,4-oxadiazole-5-carboxamido)butanoate] | 
3 | 0 to 50% |  | COC(=O)[C@@H](NC(=O)c1nc(-c2ccc(NC(=O)NCc3ccccc3)cc2)no1)C(C)C [Example 352, (S)-methyl 2-(3-(4-(3-benzylureido)phenyl)-1,2,4-oxadiazole-5-carboxamido)-3-methylbutanoate] | 
4 | 0 to 50% |  | COC(=O)[C@@H](NC(=O)c1nc(-c2ccc(NC(=S)Nc3cccc(F)c3)cc2)no1)C(C)C [Example 353, (S)-Methyl 2-(3-(4-(3-(3-fluorophenyl)thioureido)phenyl)-1,2,4-oxadiazole-5-carboxamido)-3-methylbutanoate] | 
5 | 0 to 50% |  | COC(=O)[C@@H](NC(=O)c1nc(-c2ccc(NC(=S)Nc3ccc(F)cc3)cc2)no1)C(C)C [Example 354, (S)-Methyl 2-(3-(4-(3-(4-fluorophenyl)thioureido)phenyl)-1,2,4-oxadiazole-5-carboxamido)-3-methylbutanoate] | 
6 | 50 to 75% |  | COC(=O)[C@@H](NC(=O)c1nc(-c2ccc(NC(=S)Nc3ccccc3F)cc2)no1)C(C)C [Example 355, (S)-methyl 2-(3-(4-(3-(2-fluorophenyl)thioureido)phenyl)-1,2,4-oxadiazole-5-carboxamido)-3-methylbutanoate] | 
7 | 50 to 75% |  | COC(=O)[C@@H](NC(=O)c1nc(-c2ccc(NC(=S)NCc3ccccc3)cc2)no1)C(C)C [Example 356, (S)-methyl 2-(3-(4-(3-benzylthioureido)phenyl)-1,2,4-oxadiazole-5-carboxamido)-3-methylbutanoate] | 
8 | 0 to 50% |  | COC(=O)[C@@H](NC(=O)c1nc(-c2ccc(NC(=S)Nc3ccccc3)cc2)no1)C(C)C [Example 357, (S)-methyl 3-methyl-2-(3-(4-(3-phenylthioureido)phenyl)-1,2,4-oxadiazole-5-carboxamido)butanoate] | 
9 |  | 0 to 50% | CC(C)[C@H](NC(=O)c1csc(-c2ccc(NC(=O)Nc3ccc(F)cc3F)cc2)n1)C(=O)O [Example 359, (S)-2-(2-(4-(3-(2,4-difluorophenyl)ureido)phenyl)thiazole-4-carboxamido)-3-methylbutanoic acid] | 
10 |  | 0 to 50% | CC(C)[C@H](NC(=O)c1csc(-c2ccc(NC(=O)Nc3ccc4c(c3)CCC4)cc2)n1)C(=O)O [Example 361, (S)-2-(2-(4-(3-(2,3-dihydro-1H-inden-5-yl)ureido)phenyl)thiazole-4-carboxamido)-3-methylbutanoic acid] | 
11 |  | 0 to 50% | Cc1ccc(NC(=O)Nc2ccc(-c3nc(C(=O)N[C@H](C(=O)O)C(C)C)cs3)cc2)cc1C [Example 363, (S)-2-(2-(4-(3-(3,4-dimethylphenyl)ureido)phenyl)thiazole-4-carboxamido)-3-methylbutanoic acid] | 
12 |  | 50 to 75% | CC(C)[C@H](NC(=O)c1csc(-c2ccc(NC(=O)Nc3ccc(Cl)cc3Oc3ccccc3)cc2)n1)C(=O)O [Example 365, (S)-2-(2-(4-(3-(4-chloro-2-phenoxyphenyl)ureido)phenyl)thiazole-4-carboxamido)-3-methylbutanoic acid] | 
13 |  | 0 to 50% | CC(C)[C@H](NC(=O)c1csc(-c2ccc(NC(=O)Nc3cccc(C(F)(F)F)c3)cc2)n1)C(=O)O [Example 367, (S)-3-Methyl-2-(2-(4-(3-(3-(trifluoromethyl)phenyl)ureido)phenyl)thiazole-4-carboxamido)butanoic acid] | 
14 |  | 0 to 50% | CC(C)[C@H](NC(=O)c1csc(-c2ccc(NC(=O)Nc3ccccc3Cl)cc2)n1)C(=O)O [Example 369, (S)-2-(2-(4-(3-(2-Chlorophenyl)ureido)phenyl)thiazole-4-carboxamido)-3-methylbutanoic acid] | 
15 |  | 0 to 50% | CC(C)[C@H](NC(=O)c1csc(-c2ccc(NC(=O)Nc3ccc(F)c(F)c3)cc2)n1)C(=O)O [Example 371, (S)-2-(2-(4-(3-(3,4-Difluorophenyl)ureido)phenyl)thiazole-4-carboxamido)-3-methylbutanoic acid] | 
16 |  |  | (S)-({3-[4-(6-Fluoro-benzothiazol-2-ylamino)-phenyl]-isoxazole-5-carbothioyl}-amino)-phenyl-acetic acid [Example 55] | % inhibition of hDGAT1 (At 10 μM): ++ (>50% Inhibition ≦75)
